From patent publication US20080020076A1, “Methods and Therapies for Potentiating a Therapeutic Action of an Alpha-2 Adrenergic Receptor Agonist and Inhibiting and/or Reversing Tolerance to Alpha-2 Adrenergic Receptor Agonists” (priority 2006, published 2008)

Tests used:
[1] = system: alpha-2 adrenergic receptor; assay: tail flick test (thermal antinociception), intrathecal drugs; assay type: in vivo, rat
Procedure: Experiments were conducted using adult male Sprague-Dawley rats (Charles River, St. Constant, QC, Canada) weighing between 200-250 grams. Animals were housed individually in standard laboratory cages, maintained on a 12-hour light/dark cycle, and provided with food and water ad libitum. The surgical placement of chronic indwelling intrathecal catheters (polyethylene PE 10 tubing, 7.5 cm) into the spinal subarachnoid space was made under 4% halothane anesthesia, using the method of Yaksh and Rudy Physiol. Behav. 1976 7:1032-1036). Specifically, the anesthetized animal was placed prone in a stereotaxic frame, a small incision made at the back of the neck, and the atlanto-occipital membrane overlying the cisterna magna was exposed and punctured with a blunt needle. The catheter was inserted through the cisternal opening and slowly advanced caudally to position its tip at the lumbar enlargement. The rostral end of the catheter was exteriorized at the top of the head and the wound closed with sutures. […]
The tail flick test (D'amour & Smith, J. Pharmacol. Exp. Ther. 1941 72:74-79) was used to measure the response to a thermal nociceptive stimulus. Radiant heat was applied to the distal third of the animal's tail and the response latency for tail withdrawal from the source was recorded using an analgesia meter (Owen et al., J. Pharmacol. Methods 1981 6:33-37)). […]
A single injection of clonidine was administered intrathecally and the response measured in the tail flick and paw pressure test. […]
(§1) For the in vivo studies, tail flick and paw pressure values were converted to a maximum percentage effect (M.P.E.): M.P.E.=100×[post-drug response−baseline response]/[maximum response−baseline response]. Data represented in the figures are expressed as mean (±S.E.M.). The ED50 values were determined using a non-linear regression analysis (Prism 2, GraphPad Software Inc., San Diego, Calif., USA). Statistical significance (p<0.05, 0.01. or 0.001) was determined using a one-way analysis of variance followed by a Student Newman-Keuls post hoc test for multiple comparisons between groups.

[2] = system: alpha-2 adrenergic receptor; assay: paw pressure test (mechanical antinociception), intrathecal drugs; assay type: in vivo, rat
Procedure: (§2) Experiments were conducted using adult male Sprague-Dawley rats (Charles River, St. Constant, QC, Canada) weighing between 200-250 grams. Animals were housed individually in standard laboratory cages, maintained on a 12-hour light/dark cycle, and provided with food and water ad libitum. The surgical placement of chronic indwelling intrathecal catheters (polyethylene PE 10 tubing, 7.5 cm) into the spinal subarachnoid space was made under 4% halothane anesthesia, using the method of Yaksh and Rudy Physiol. Behav. 1976 7:1032-1036). Specifically, the anesthetized animal was placed prone in a stereotaxic frame, a small incision made at the back of the neck, and the atlanto-occipital membrane overlying the cisterna magna was exposed and punctured with a blunt needle. The catheter was inserted through the cisternal opening and slowly advanced caudally to position its tip at the lumbar enlargement. The rostral end of the catheter was exteriorized at the top of the head and the wound closed with sutures. Animals were allowed 3-4 days recovery from surgery and only those free from neurological deficits, such as the hindlimb or forelimb paralysis or gross motor dysfunction, were included in the study. All drugs were injected intrathecally as solutions dissolved in physiological saline (0.9%) through the exteriorized portion of the catheter at a volume of 10 μl, followed by a 10 μl volume of 0.9% saline to flush the catheter.
(§3) The paw pressure test (Loomis et al., Pharm. Biochem. 1987 26:131-139) was used to measure the response to a mechanical nociceptive stimulus. Pressure was applied to the dorsal surface of the hind paw using an inverted air-filled syringe connected to a gauge and the value at which the animal withdrew its paw was recorded. A maximum cutoff pressure of 300 mmHg was used to avoid tissue damage.
A single injection of clonidine was administered intrathecally and the response measured in the tail flick and paw pressure test. […] Following drug administration, nociceptive testing was performed every 10 minutes for the first 60 minutes and every 30 minutes for the following 120-150 minute period. Results for atipemazole are depicted in FIG. 1A (tail flick) and FIG. 1B (paw pressure).
as §1

[3] = system: alpha-2 adrenergic receptor; assay: acute tolerance to spinal L-norepinephrine analgesia, tail flick test; assay type: in vivo, rat
Procedure: (§4) The effect of normal saline (20 μl) was also evaluated by injection at 90 minute intervals. Pain responses were evaluated in the tail flick and paw pressure test at 30 minute intervals.
as §2
The tail flick test (D'amour & Smith, J. Pharmacol. Exp. Ther. 1941 72:74-79) was used to measure the response to a thermal nociceptive stimulus. Radiant heat was applied to the distal third of the animal's tail and the response latency for tail withdrawal from the source was recorded using an analgesia meter (Owen et al., J. Pharmacol. Methods 1981 6:33-37)). The stimulus intensity was adjusted to yield baseline response latencies between 2-3 seconds. To minimize tail damage, a cutoff of 10 seconds was used as an indicator of maximum antinociception.
as §1

[4] = system: alpha-2 adrenergic receptor; assay: acute tolerance to spinal L-norepinephrine analgesia, paw pressure test; assay type: in vivo, rat
Procedure: as §4, §2, §3, §1

[5] = system: alpha-2 adrenergic receptor; assay: tail flick test (thermal antinociception), intrathecal drugs; assay type: in vivo, rat; remark: listed apart in the source
alpha-2 adrenoceptors = conditions: versus yohimbine; cited from earlier work
[6] = atipemazole 1, 5, 10 μg co-administered with clonidine 200 nmoles intrathecal
[7] = atipemazole 0.08 ng with L-norepinephrine 30 μg intrathecal
[8] = atipemazole 0.0008, 0.008 and 0.08 ng with clonidine 50 nmoles intrathecal
[9] = 24 hours after treatment, atipemazole 0.008 or 0.8 ng combined with norepinephrine
[10] = atipemazole 0.8 ng with L-norepinephrine 30 μg, three intrathecal injections at 90 minute intervals
[11] = atipemazole 0.008 or 0.8 ng combined with norepinephrine, x3, 24 hours after
[12] = combination of norepinephrine 30 μg and atipemazole 0.8 ng, x3 at 90 minute intervals
[13] = clonidine 50 nmoles (13.3 μg) intrathecal, alone
[14] = clonidine 50 nmoles (13.3 μg) intrathecal, alone, listed as Clonidine
[15] = clonidine 200 nmoles intrathecal, alone
[16] = single spinal dose of norepinephrine (30 μg), alone
[17] = 24 hours after three successive injections of norepinephrine alone
[18] = norepinephrine alone, 30 μg x3 at 90 minute intervals
[19] = yohimbine 0.0002, 0.005 and 0.02 ng with clonidine 50 nmoles (13.3 μg) intrathecal

## CCC1(c2cnc[nH]2)Cc2ccccc2C1 [atipemazole]
[1]; atipemazole 10 μg (highest dose) with clonidine 200 nmoles intrathecal
  effect on peak clonidine analgesia: almost abolishing the response
[1]; [6]
  effect on peak clonidine analgesia: dose-related decrease
[1]; intrathecal, co-administered with clonidine 200 nmoles
  dose antagonizing the analgesic action of clonidine: greater than 1 microgram
[2]; [7]
  effect on norepinephrine analgesia: extended norepinephrine analgesia
[2]; [8]
  effect on clonidine analgesic response: significantly augmented
[2]; [6]
  effect on clonidine response: decreased clonidine response in the paw pressure test but only at the highest dose
[3]; [9]
  rightward shift of the L-norepinephrine cumulative dose-response curve: prevented
[3]; [10]
  effect on decline of norepinephrine analgesia on repeated injection: inhibited the decline of norepinephrine analgesia
[3]; [11]
  effect on increase of L-norepinephrine ED50: completely prevented the increase in ED50 values
[3]; [12]
  analgesic response at 240 minutes, after the third dose: sustained the maximal analgesic level
[4]; [9]
  rightward shift of the L-norepinephrine cumulative dose-response curve: prevented
[4]; [10]
  effect on decline of norepinephrine analgesia on repeated injection: inhibited the decline of norepinephrine analgesia
[4]; [11]
  effect on increase of L-norepinephrine ED50: completely prevented the increase in ED50 values
[4]; [12]
  analgesic response at 240 minutes, after the third dose: sustained the maximal analgesic level
[5]; [7]
  effect on norepinephrine analgesia: extended norepinephrine analgesia
[5]; [8]
  effect on clonidine analgesic response: significantly augmented
alpha-2 adrenoceptors
  potency as a displacer of clonidine relative to yohimbine: about 100 times

## Clc1cccc(Cl)c1N=C1NCCN1 [clonidine]
[2]; [13]
  analgesic response: submaximal analgesic response
[2]; [14]
  analgesic response: submaximal analgesia
[2]; [15]
  analgesic response: a lesser effect
[5]; [13]
  analgesic response: submaximal analgesic response
[5]; [14]
  analgesic response: submaximal analgesia
[5]; [15]
  analgesic response: maximal analgesic response

## NC[C@H](O)c1ccc(O)c(O)c1 [norepinephrine, L-norepinephrine]
[2]; [16]
  time at which analgesia terminated: 180 min
  time of peak analgesia: 30 min
[3]; [17]
  L-norepinephrine ED50 versus saline control group: increased significantly
[3]; [18]
  analgesic response at 240 minutes, after the third dose: significantly declined towards pre-drug baseline value
[4]; [17]
  L-norepinephrine ED50 versus saline control group: increased significantly
[4]; [18]
  analgesic response at 240 minutes, after the third dose: significantly declined towards pre-drug baseline value
[5]; [16]
  time at which analgesia terminated: 180 min
  time of peak analgesia: 30 min

## COC(=O)[C@@H]1[C@H]2C[C@H]3c4[nH]c5ccccc5c4CCN3C[C@@H]2CC[C@@H]1O [yohimbine]
[2]; [19]
  effect on clonidine analgesic response: significantly augmented
[5]; [19]
  effect on clonidine analgesic response: significantly augmented
